Source: US20230295234A1, “ANTIMICROBIAL PEPTIDOMIMETICS” (SPEXIS AG, priority 2020, published 2023)
Like-named read-outs stand apart in the source and are kept apart here. Bridge positions count the residues as written; N and C are the ends. Square brackets hold non-standard residues; d marks the D form. Peptide text beside a SMILES is read from it. Gly(N-2-aminoethyl) = NCCNCC(=O)O; Hyp = O=C(O)[C@@H]1C[C@@H](O)CN1; Pen = CC(C)(S)[C@H](N)C(=O)O; dDab = NCC[C@@H](N)C(=O)O; Dab = NCC[C@H](N)C(=O)O

What was measured:
[1] = system: Escherichia coli ATCC 25922
Method in brief: (§1)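 First, bacterial colonies are suspended in saline and adjusted to 0.5 McFarland. Next, the suspension is diluted into cation-adjusted Mueller-Hinton II broth (approx. 5×10^5 CFU/mL). Finally, it is added to two-fold serially diluted peptide, with polysorbate 80 at 0.002% final.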

[2] = system: Escherichia coli MCR-1 Af 45
Method in brief: as §1

[3] = system: Klebsiella pneumoniae SSI3010
Method in brief: as §1

[4] = system: human red blood cells (hRBC); assay: Hemolysis of human red blood cells; format: cell-based
Method in brief: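 Percent hemolysis is OD540 of peptide-treated supernatant relative to water-lysed cells. Each peptide was tested at 200 μg/mL against 20% (v/v) washed human erythrocytes. Incubation was 1 h at 37 °C, 300 rpm.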

[5] = Mueller-Hinton broth II, 18-20 hours at 35° C.

Row | SMILES | Escherichia coli ATCC 25922 MIC ([1]; ATCC 25922) | Escherichia coli MCR-1 Af 45 MIC ([2]; MCR-1 Af 45) | Klebsiella pneumoniae SSI3010 MIC ([3]; SSI3010) | Hemolysis at 0.2 g/L ([4]; red cells of human, 1 h) | Escherichia coli MCR-1 Af 45 MIC [2, 5] | Escherichia coli ATCC 25922 MIC [1, 5] | Klebsiella pneumoniae SSI3010 MIC [3, 5] | Hemolysis at 0.2 g/L ([4]; 20% hRBC, 1 h at 37° C.)
1 | CC[C@H](C)[C@H](NC(=O)[C@@H]1C[C@@H](O)CN1C(=O)[C@@H](NC(=O)[C@@H]1C[C@@H](O)CN1C(=O)[C@H](CCCCN)NC(=O)[C@@H](N)CCCCN)C(C)C)C(=O)N[C@H](C(=O)N[C@@H](Cc1ccc(O)cc1)C(=O)N[C@@H]1C(=O)N[C@@H](CC(N)=O)C(=O)N[C@@H](CCCNC(=N)N)C(=O)N[C@@H](CCN)C(=O)N[C@@H]([C@@H](C)O)C(=O)N[C@H](CCN)C(=O)N[C@@H](CCCCN)C(=O)N[C@H](C(=O)N[C@@H](Cc2ccc(O)cc2)C(=O)N[C@@H](CCCNC(=N)N)C(=O)N[C@@H](Cc2ccc(O)cc2)C(=O)O)CSSC1(C)C)[C@@H](C)O [Example 128, Lys-Lys-Hyp-Val-Hyp-Ile-Thr-Tyr-Pen-Asn-Arg-Dab-Thr-^DDab-Lys-Cys-Tyr-Arg-Tyr] (HELM PEPTIDE1{K.K.[Hyp].V.[Hyp].I.T.Y.[Pen].N.R.[Dab].T.[NCC[C@@H](N[*:1])C(=O)[*:2]].K.C.Y.R.Y}$PEPTIDE1,PEPTIDE1,9:R3-16:R3$$$V2.0; N-terminus and C-terminus assumed) | 0.125 µg/mL | 0.0625 µg/mL | 0.125 µg/mL | 0% | – | – | – | –
2 | CC[C@H](C)[C@H](NC(=O)CN(CCN)C(=O)[C@@H](NC(=O)[C@@H]1C[C@@H](O)CN1C(=O)[C@H](CCCCN)NC(=O)[C@@H](N)CCCCN)C(C)C)C(=O)N[C@H](C(=O)N[C@@H](Cc1ccc(O)cc1)C(=O)N[C@@H]1C(=O)N[C@@H](CC(N)=O)C(=O)N[C@@H](CCCNC(=N)N)C(=O)N[C@@H](CCN)C(=O)N[C@@H]([C@@H](C)O)C(=O)N[C@H](CCN)C(=O)N[C@@H](CCCCN)C(=O)N[C@H](C(=O)N[C@@H](Cc2ccc(O)cc2)C(=O)N[C@@H](CCCNC(=N)N)C(=O)N[C@@H](Cc2ccc(O)cc2)C(=O)O)CSSC1(C)C)[C@@H](C)O [Example 129, Lys-Lys-Hyp-Val-Ndab-Ile-Thr-Tyr-Pen-Asn-Arg-Dab-Thr-^DDab-Lys-Cys-Tyr-Arg-Tyr] (HELM PEPTIDE1{K.K.[Hyp].V.[NCCN(CC(=O)[*:2])[*:1]].I.T.Y.[Pen].N.R.[Dab].T.[NCC[C@@H](N[*:1])C(=O)[*:2]].K.C.Y.R.Y}$PEPTIDE1,PEPTIDE1,9:R3-16:R3$$$V2.0) | 0.25 µg/mL | 0.0625 µg/mL | 0.125 µg/mL | 0% | – | – | – | –
3 | CC[C@H](C)[C@H](NC(=O)CN(CCN)C(=O)[C@@H](NC(=O)[C@@H]1C[C@@H](O)CN1C(=O)[C@H](CCCCN)NC(=O)CNCCN)C(C)C)C(=O)N[C@H](C(=O)N[C@@H](Cc1ccc(O)cc1)C(=O)N[C@@H]1C(=O)N[C@@H](CC(N)=O)C(=O)N[C@@H](CCCNC(=N)N)C(=O)N[C@@H](CCN)C(=O)N[C@@H]([C@@H](C)O)C(=O)N[C@H](CCN)C(=O)N[C@@H](CCCCN)C(=O)N[C@H](C(=O)N[C@@H](Cc2ccc(O)cc2)C(=O)N[C@@H](CCCNC(=N)N)C(=O)N[C@@H](Cc2ccc(O)cc2)C(=O)O)CSSC1(C)C)[C@@H](C)O [Example 130, Ndab-Lys-Hyp-Val-Ndab-Ile-Thr-Tyr-Pen-Asn-Arg-Dab-Thr-^DDab-Lys-Cys-Tyr-Arg-Tyr] (H-[Gly(N-2-aminoethyl)]K[Hyp]V[Gly(N-2-aminoethyl)]ITY[Pen]NR[Dab]T[dDab]KCYRY-OH; disulfide 9-16) | 0.25 µg/mL | 0.125 µg/mL | 0.25 µg/mL | 0% | – | – | – | –
4 | CC[C@H](C)[C@H](NC(=O)[C@@H](NC(=O)[C@@H]1CCCN1C(=O)[C@@H](NC(=O)[C@@H]1C[C@@H](N)CN1C(=O)[C@H](CCCCN)NC(=O)[C@@H](N)CCCCN)C(C)C)[C@@H](C)CC)C(=O)N[C@@H](Cc1ccc(O)cc1)C(=O)N[C@H]1CCNC(=O)CC[C@@H](C(=O)N[C@@H](CCN)C(=O)N[C@@H](CCCNC(=N)N)C(=O)N[C@@H](Cc2ccc(O)cc2)C(=O)O)NC(=O)[C@H](CCCCN)NC(=O)[C@@H](CCN)NC(=O)[C@H]([C@@H](C)O)NC(=O)[C@H](CCN)NC(=O)[C@H](CCCNC(=N)N)NC(=O)[C@H](CC(N)=O)NC1=O [Example 131, Lys-Lys-Pro((4R)NH2)-Val-Pro-Ile-Ile-Tyr-Dab-Asn-Arg-Dab-Thr-^DDab-Lys-Glu-Dab-Arg-Tyr] (HELM PEPTIDE1{K.K.[N[C@@H]1C[C@@H](C(=O)[*:2])N([*:1])C1].V.P.I.I.Y.[Dab].N.R.[Dab].T.[NCC[C@@H](N[*:1])C(=O)[*:2]].K.E.[Dab].R.Y}$PEPTIDE1,PEPTIDE1,9:R3-16:R3$$$V2.0) | 0.125 µg/mL | 0.125 µg/mL | 0.25 µg/mL | 0% | – | – | – | –
5 | CC[C@H](C)[C@H](NC(=O)[C@@H](NC(=O)[C@@H]1CCCN1C(=O)[C@@H](NC(=O)[C@@H]1C[C@@H](N)CN1C(=O)[C@H](CCCCN)NC(=O)[C@@H](N)CCCCN)C(C)C)[C@@H](C)CC)C(=O)N[C@@H](Cc1ccc(O)cc1)C(=O)N[C@H]1CC(=O)NCC[C@@H](C(=O)N[C@@H](CCN)C(=O)N[C@@H](CCCNC(=N)N)C(=O)N[C@@H](Cc2ccc(O)cc2)C(=O)O)NC(=O)[C@H](CCCCN)NC(=O)[C@@H](CCN)NC(=O)[C@H]([C@@H](C)O)NC(=O)[C@H](CCN)NC(=O)[C@H](CCCNC(=N)N)NC(=O)[C@H](CC(N)=O)NC1=O [Example 132] (HELM PEPTIDE1{K.K.[N[C@@H]1C[C@@H](C(=O)[*:2])N([*:1])C1].V.P.I.I.Y.D.N.R.[Dab].T.[NCC[C@@H](N[*:1])C(=O)[*:2]].K.[Dab].[Dab].R.Y}$PEPTIDE1,PEPTIDE1,9:R3-16:R3$$$V2.0) | 0.0625 µg/mL | 0.0625 µg/mL | 0.0625 µg/mL | 0% | – | – | – | –
6 | CC[C@H](C)[C@H](NC(=O)[C@@H](NC(=O)[C@@H]1CCCN1C(=O)[C@@H](NC(=O)[C@@H]1C[C@@H](N)CN1C(=O)[C@H](CCCCN)NC(=O)[C@@H](N)CCCCN)C(C)C)[C@@H](C)CC)C(=O)N[C@@H](Cc1ccc(O)cc1)C(=O)N[C@H]1CCC(=O)NCC[C@@H](C(=O)N[C@@H](CCN)C(=O)N[C@@H](CCCNC(=N)N)C(=O)N[C@@H](Cc2ccc(O)cc2)C(=O)O)NC(=O)[C@H](CCCCN)NC(=O)[C@@H](CCN)NC(=O)[C@H]([C@@H](C)O)NC(=O)[C@H](CCN)NC(=O)[C@H](CCCNC(=N)N)NC(=O)[C@H](CC(N)=O)NC1=O [Example 133] (HELM PEPTIDE1{K.K.[N[C@@H]1C[C@@H](C(=O)[*:2])N([*:1])C1].V.P.I.I.Y.E.N.R.[Dab].T.[NCC[C@@H](N[*:1])C(=O)[*:2]].K.[Dab].[Dab].R.Y}$PEPTIDE1,PEPTIDE1,9:R3-16:R3$$$V2.0) | 0.25 µg/mL | 0.25 µg/mL | 0.25 µg/mL | 0% | – | – | – | –
7 | CCCC[C@H](NC(=O)[C@H](CCCNC(=N)N)NC(=O)[C@H](CCN)NC(=O)[C@@H]1CSSC[C@H](NC(=O)[C@H](Cc2ccc(O)cc2)NC(=O)[C@@H](NC(=O)[C@@H](NC(=O)[C@@H]2CCCN2C(=O)[C@@H](N)C(C)C)[C@@H](C)CC)[C@@H](C)CC)C(=O)N[C@@H](CC(N)=O)C(=O)N[C@@H](CCCNC(=N)N)C(=O)N[C@@H](CCCNC(=N)N)C(=O)N[C@@H]([C@@H](C)O)C(=O)N[C@H](CCN)C(=O)N[C@@H](CCCCN)C(=O)N1)C(=O)O [Example 134] (HELM PEPTIDE1{V.P.I.I.Y.C.N.R.R.T.[NCC[C@@H](N[*:1])C(=O)[*:2]].K.C.[Dab].R.[Nle]}$PEPTIDE1,PEPTIDE1,6:R3-13:R3$$$V2.0) | 0.0625 µg/mL | – | 0.125 µg/mL | 0% | 0.0625 µg/mL | – | – | –
8 | CCCC[C@H](NC(=O)[C@H](CCCNC(=N)N)NC(=O)[C@H](CCN)NC(=O)[C@@H]1CSSC(C)(C)[C@H](NC(=O)[C@H](Cc2ccc(O)cc2)NC(=O)[C@@H](NC(=O)[C@@H](NC(=O)[C@@H]2C[C@@H](N)CN2C(=O)[C@@H](N)C(C)C)[C@@H](C)CC)[C@@H](C)CC)C(=O)N[C@@H](CC(N)=O)C(=O)N[C@@H](CCCNC(=N)N)C(=O)N[C@@H](CCCNC(=N)N)C(=O)N[C@@H]([C@@H](C)O)C(=O)N[C@H](CCN)C(=O)N[C@@H](CCCCN)C(=O)N1)C(=O)O [Example 135] (HELM PEPTIDE1{V.[N[C@@H]1C[C@@H](C(=O)[*:2])N([*:1])C1].I.I.Y.[Pen].N.R.R.T.[NCC[C@@H](N[*:1])C(=O)[*:2]].K.C.[Dab].R.[Nle]}$PEPTIDE1,PEPTIDE1,6:R3-13:R3$$$V2.0) | – | – | – | – | 0.0625 µg/mL | 0.0625 µg/mL | 0.125 µg/mL | 0%
9 | CCCC[C@H](NC(=O)[C@H](CCCNC(=N)N)NC(=O)[C@H](CCN)NC(=O)[C@@H]1CSSC(C)(C)[C@H](NC(=O)[C@H](Cc2ccc(O)cc2)NC(=O)[C@@H](NC(=O)[C@@H](NC(=O)[C@@H]2C[C@@H](N)CN2C(=O)[C@@H](N)C(C)C)[C@@H](C)CC)[C@@H](C)CC)C(=O)N[C@@H](CC(N)=O)C(=O)N[C@@H](CCCNC(=N)N)C(=O)N[C@@H](CCN)C(=O)N[C@@H]([C@@H](C)O)C(=O)N[C@H](CCN)C(=O)N[C@@H](CCCCN)C(=O)N1)C(=O)O [Example 136] (HELM PEPTIDE1{V.[N[C@@H]1C[C@@H](C(=O)[*:2])N([*:1])C1].I.I.Y.[Pen].N.R.[Dab].T.[NCC[C@@H](N[*:1])C(=O)[*:2]].K.C.[Dab].R.[Nle]}$PEPTIDE1,PEPTIDE1,6:R3-13:R3$$$V2.0) | 0.125 µg/mL | – | 0.125 µg/mL | 0% | 0.0625 µg/mL | – | – | –
